Test results as given in article PMC5218480 (PLoS ONE, 2017).

Tested on: MV-4-11 cells
Assay: Gene expression microarray analysis (Affymetrix PrimeView) and GSEA
Type: cell-based, human
Parameters: RFU PODN (11730768_x_at) / Fold change /veh PODN (11730768_x_at) / RFU LINC00158 (11744669_a_at) / Fold change /veh LINC00158 (11744669_a_at) / RFU DUSP10 (11751237_a_at) / Fold change /veh DUSP10 (11751237_a_at) / RFU ID3 (11757404_x_at) / Fold change /veh ID3 (11757404_x_at) / RFU PLEKHG5 (11737974_s_at) / Fold change /veh PLEKHG5 (11737974_s_at) / RFU LRRC4B (11730491_at) / Fold change /veh LRRC4B (11730491_at) / RFU GIMAP4 (11747438_a_at) / Fold change /veh GIMAP4 (11747438_a_at) / RFU KRT8 (11758183_x_at) / Fold change /veh KRT8 (11758183_x_at) / RFU CNN1 (11734310_a_at) / Fold change /veh CNN1 (11734310_a_at) / RFU VPS37D (11726825_at) / Fold change /veh VPS37D (11726825_at) / RFU C10orf10 (11716522_x_at) / Fold change /veh C10orf10 (11716522_x_at) / RFU KIR2DL2 /// KIR2DL4 /// KIR2DL5A /// KIR2DL5B /// KIR2DS1 /// KIR2DS2 /// KIR2DS3 /// KIR2DS4 /// KIR3DL3 /// KIR3DL3 /// KIR3DS1 (11738374_at) / Fold change /veh KIR2DL2 /// KIR2DL4 /// KIR2DL5A /// KIR2DL5B /// KIR2DS1 /// KIR2DS2 /// KIR2DS3 /// KIR2DS4 /// KIR3DL3 /// KIR3DL3 /// KIR3DS1 (11738374_at) / RFU C1QL1 (11718748_at) / Fold change /veh C1QL1 (11718748_at) / RFU TMPRSS4 (11747572_a_at) / Fold change /veh TMPRSS4 (11747572_a_at) / RFU HAMP (11756126_x_at) / Fold change /veh HAMP (11756126_x_at) / RFU RNFT2 (11725882_a_at) / Fold change /veh RNFT2 (11725882_a_at) / RFU NR4A2 (11747474_a_at) / Fold change /veh NR4A2 (11747474_a_at) / RFU ABCC12 (11746883_a_at) / Fold change /veh ABCC12 (11746883_a_at) / RFU TMEM136 (11760407_x_at) / Fold change /veh TMEM136 (11760407_x_at) / RFU CLDN22 /// WWC2 (11732394_at) / Fold change /veh CLDN22 /// WWC2 (11732394_at) / RFU HLA-DPB1 (11760878_x_at) / Fold change /veh HLA-DPB1 (11760878_x_at) / RFU SPINT1 (11716480_a_at) / Fold change /veh SPINT1 (11716480_a_at) / RFU GAP43 (11754022_s_at) / Fold change /veh GAP43 (11754022_s_at) / RFU A4GNT (11735810_at) / Fold change /veh A4GNT (11735810_at) / RFU PRB3 (11715151_x_at) / Fold change /veh PRB3 (11715151_x_at) / RFU TUBB4B (11761932_at) / Fold change /veh TUBB4B (11761932_at) / RFU CAPN14 (11732068_a_at) / Fold change /veh CAPN14 (11732068_a_at) / RFU TMCC2 (11721928_a_at) / Fold change /veh TMCC2 (11721928_a_at) / RFU IRGQ (11745062_a_at) / Fold change /veh IRGQ (11745062_a_at) / RFU FAM174B (11720279_a_at) / Fold change /veh FAM174B (11720279_a_at) / RFU TMPRSS4 (11748680_a_at) / Fold change /veh TMPRSS4 (11748680_a_at) / RFU FAM212B (11763350_a_at) / Fold change /veh FAM212B (11763350_a_at) / RFU PLEKHG5 (11743358_a_at) / Fold change /veh PLEKHG5 (11743358_a_at) / RFU ZSCAN30 (11745921_a_at) / Fold change /veh ZSCAN30 (11745921_a_at) / RFU CMKLR1 (11741424_a_at) / Fold change /veh CMKLR1 (11741424_a_at) / RFU LOC101060620 /// MAPK8IP1 (11723275_at) / Fold change /veh LOC101060620 /// MAPK8IP1 (11723275_at) / RFU SPTSSB (11747773_x_at) / Fold change /veh SPTSSB (11747773_x_at) / RFU PRSS12 (11739890_at) / Fold change /veh PRSS12 (11739890_at) / RFU BIN1 (11741810_x_at) / Fold change /veh BIN1 (11741810_x_at) / RFU WNT11 (11732464_a_at) / Fold change /veh WNT11 (11732464_a_at) / RFU C10orf10 (11716521_a_at) / Fold change /veh C10orf10 (11716521_a_at) / RFU C5orf56 (11738089_at) / Fold change /veh C5orf56 (11738089_at) / RFU CYB561 (11721691_x_at) / Fold change /veh CYB561 (11721691_x_at) / RFU ANKRD19P (11752326_a_at) / Fold change /veh ANKRD19P (11752326_a_at) / RFU OR2T12 /// OR2T33 /// OR2T8 (11738714_s_at) / Fold change /veh OR2T12 /// OR2T33 /// OR2T8 (11738714_s_at) / RFU VCAN (11748164_a_at) / Fold change /veh VCAN (11748164_a_at) / RFU JSRP1 (11732532_at) / Fold change /veh JSRP1 (11732532_at) / RFU KRTAP10-11 (11738290_x_at) / Fold change /veh KRTAP10-11 (11738290_x_at) / RFU MYO3A (11730013_a_at) / Fold change /veh MYO3A (11730013_a_at) / RFU EBF3 (11725865_a_at) / Fold change /veh EBF3 (11725865_a_at) / RFU CAMK2N1 (11719241_x_at) / Fold change /veh CAMK2N1 (11719241_x_at) / RFU C5orf56 (11738088_a_at) / Fold change /veh C5orf56 (11738088_a_at) / RFU OLFML3 (11715873_a_at) / Fold change /veh OLFML3 (11715873_a_at) / RFU LOC100653217 /// NTM (11731650_a_at) / Fold change /veh LOC100653217 /// NTM (11731650_a_at) / RFU MAPK11 (11762145_a_at) / Fold change /veh MAPK11 (11762145_a_at) / RFU FIZ1 (11724087_x_at) / Fold change /veh FIZ1 (11724087_x_at) / RFU OASL (11726364_x_at) / Fold change /veh OASL (11726364_x_at) / RFU SOX15 (11748057_x_at) / Fold change /veh SOX15 (11748057_x_at) / RFU CD79A (11719716_a_at) / Fold change /veh CD79A (11719716_a_at) / RFU HIST1H1D (11736915_at) / Fold change /veh HIST1H1D (11736915_at) / RFU CASKIN2 (11723855_a_at) / Fold change /veh CASKIN2 (11723855_a_at) / RFU LOC730098 (11760151_x_at) / Fold change /veh LOC730098 (11760151_x_at) / RFU OR4N2 (11742367_at) / Fold change /veh OR4N2 (11742367_at) / RFU PRRT2 (11749266_a_at) / Fold change /veh PRRT2 (11749266_a_at) / RFU SNX32 (11753110_a_at) / Fold change /veh SNX32 (11753110_a_at) / RFU CDHR5 (11726645_a_at) / Fold change /veh CDHR5 (11726645_a_at) / RFU RCAN1 (11760418_a_at) / Fold change /veh RCAN1 (11760418_a_at) / RFU FAM167A (11723789_a_at) / Fold change /veh FAM167A (11723789_a_at) / RFU FAM26E (11764081_at) / Fold change /veh FAM26E (11764081_at) / RFU ISYNA1 (11749810_s_at) / Fold change /veh ISYNA1 (11749810_s_at) / RFU ACY1 (11761880_at) / Fold change /veh ACY1 (11761880_at) / RFU 11764098_at / Fold change /veh 11764098_at / RFU SAMD14 (11745864_x_at) / Fold change /veh SAMD14 (11745864_x_at) / RFU NPB (11741838_a_at) / Fold change /veh NPB (11741838_a_at) / RFU TMPRSS6 (11731388_a_at) / Fold change /veh TMPRSS6 (11731388_a_at) / RFU KRTAP10-2 (11738614_at) / Fold change /veh KRTAP10-2 (11738614_at) / RFU ARHGAP8 /// PRR5-ARHGAP8 (11727945_x_at) / Fold change /veh ARHGAP8 /// PRR5-ARHGAP8 (11727945_x_at) / RFU KRTAP5-7 /// NADSYN1 (11734609_at) / Fold change /veh KRTAP5-7 /// NADSYN1 (11734609_at) / RFU RASL12 (11751679_a_at) / Fold change /veh RASL12 (11751679_a_at) / RFU CDKN2B (11736163_a_at) / Fold change /veh CDKN2B (11736163_a_at) / RFU PRF1 (11729649_at) / Fold change /veh PRF1 (11729649_at) / RFU, ZNF638 /// ZNF638-IT1 / Fold change vs veh, ZNF638 /// ZNF638-IT1 / RFU, PANK3 / Fold change vs veh, PANK3 / RFU, SH3YL1 / Fold change vs veh, SH3YL1 / RFU, ZEB2 / Fold change vs veh, ZEB2 / RFU, NRIP1 / Fold change vs veh, NRIP1 / RFU, PTTG1IP / Fold change vs veh, PTTG1IP / RFU, CAPN2 / Fold change vs veh, CAPN2 / RFU, MED14 / Fold change vs veh, MED14 / RFU, SNORA58 / Fold change vs veh, SNORA58 / RFU, C1orf63 / Fold change vs veh, C1orf63 / RFU, LRRFIP1 / Fold change vs veh, LRRFIP1 / RFU, NDUFAF7 / Fold change vs veh, NDUFAF7 / RFU, SLC12A2 / Fold change vs veh, SLC12A2 / RFU, IBTK / Fold change vs veh, IBTK / RFU, ESF1 / Fold change vs veh, ESF1 / Fold change vs veh, TMEM50B / RFU, TAOK1 / Fold change vs veh, TAOK1 / RFU, ACBD3 / Fold change vs veh, ACBD3 / RFU, TMA16 / Fold change vs veh, TMA16 / RFU, RWDD3 / Fold change vs veh, RWDD3 / RFU, BCAT1 / Fold change vs veh, BCAT1 / RFU, EDEM3 / Fold change vs veh, EDEM3 / RFU, TMEM33 / Fold change vs veh, TMEM33 / RFU, WDR75 / Fold change vs veh, WDR75 / RFU, AHCTF1 / Fold change vs veh, AHCTF1 / RFU, TFRC / Fold change vs veh, TFRC / RFU, ZDHHC17 / Fold change vs veh, ZDHHC17 / RFU, NOM1 / Fold change vs veh, NOM1 / RFU, ARL8B / Fold change vs veh, ARL8B / RFU, ZBTB11 / Fold change vs veh, ZBTB11 / RFU, TAMM41 / Fold change vs veh, TAMM41 / RFU, KIAA1704 /// LOC100996395 / Fold change vs veh, KIAA1704 /// LOC100996395 / RFU, ING1 / Fold change vs veh, ING1 / RFU, TRMT61B / Fold change vs veh, TRMT61B / RFU, FUBP3 / Fold change vs veh, FUBP3 / RFU, TP53 / Fold change vs veh, TP53 / RFU, TNKS2 / Fold change vs veh, TNKS2 / RFU, ZFP14 / Fold change vs veh, ZFP14 / RFU, ACTR2 / Fold change vs veh, ACTR2 / RFU, PPP3R1 / Fold change vs veh, PPP3R1 / RFU, PIK3R1 / Fold change vs veh, PIK3R1 / RFU, HNRNPA1 / Fold change vs veh, HNRNPA1 / RFU, RNF170 / Fold change vs veh, RNF170 / RFU, ZNF28 / Fold change vs veh, ZNF28 / RFU, RNGTT / Fold change vs veh, RNGTT / RFU, OGT / Fold change vs veh, OGT / RFU, BRD1 / Fold change vs veh, BRD1 / RFU, MARS / Fold change vs veh, MARS / RFU, ZNF655 / Fold change vs veh, ZNF655 / RFU, FAHD1 / Fold change vs veh, FAHD1 / RFU, BDP1 / Fold change vs veh, BDP1 / RFU, LRRCC1 / Fold change vs veh, LRRCC1 / RFU, ARID1A / Fold change vs veh, ARID1A / RFU, ZNF146 / Fold change vs veh, ZNF146 / RFU, ZNF330 / Fold change vs veh, ZNF330 / RFU, GPN3 / Fold change vs veh, GPN3 / RFU, C9orf123 / Fold change vs veh, C9orf123 / RFU, N4BP2L2 / Fold change vs veh, N4BP2L2 / RFU, ARFIP1 / Fold change vs veh, ARFIP1 / RFU, FAM179B / Fold change vs veh, FAM179B / RFU, BCL10 / Fold change vs veh, BCL10 / RFU, UHRF1BP1L / Fold change vs veh, UHRF1BP1L / RFU, BET1 / Fold change vs veh, BET1 / RFU, CNOT2 / Fold change vs veh, CNOT2 / RFU, ZNF268 / Fold change vs veh, ZNF268 / Fold change vs veh, ZNF507 / RFU, DGCR2 / Fold change vs veh, DGCR2 / RFU, WDSUB1 / Fold change vs veh, WDSUB1 / Fold change vs veh, HSP90B1 /// MIR3652 / RFU, ADSS / Fold change vs veh, ADSS / RFU, GK / Fold change vs veh, GK / RFU, ZNF148 / Fold change vs veh, ZNF148 / RFU, TAF9 / Fold change vs veh, TAF9 / RFU, SLC1A5 / Fold change vs veh, SLC1A5 / RFU, SLMO2 / Fold change vs veh, SLMO2 / RFU, ABCC4 / Fold change vs veh, ABCC4 / RFU, LOC101060439 /// RAP1B / Fold change vs veh, LOC101060439 /// RAP1B / RFU, RFX7 / Fold change vs veh, RFX7 / RFU, GTPBP10 / Fold change vs veh, GTPBP10 / RFU, CNEP1R1 / Fold change vs veh, CNEP1R1 / RFU, BIVM-ERCC5 /// ERCC5 / Fold change vs veh, BIVM-ERCC5 /// ERCC5 / RFU, ILF3 / Fold change vs veh, ILF3 / RFU 11762660_at / Fold change /veh 11762660_at / RFU VCAN (11757783_s_at) / Fold change /veh VCAN (11757783_s_at) / RFU DDX43 (11728927_at) / Fold change /veh DDX43 (11728927_at) / RFU KRT8 (11758188_x_at) / Fold change /veh KRT8 (11758188_x_at) / RFU NKD1 (11759106_at) / Fold change /veh NKD1 (11759106_at) / RFU SRD5A1 (11742802_a_at) / Fold change /veh SRD5A1 (11742802_a_at) / RFU TPSAB1 /// TPSB2 (11721975_s_at) / Fold change /veh TPSAB1 /// TPSB2 (11721975_s_at) / RFU GSTM3 (11746129_a_at) / Fold change /veh GSTM3 (11746129_a_at) / RFU IL23R (11737362_x_at) / Fold change /veh IL23R (11737362_x_at) / RFU TMEM51 (11727254_a_at) / Fold change /veh TMEM51 (11727254_a_at) / RFU PIWIL2 (11732686_x_at) / Fold change /veh PIWIL2 (11732686_x_at) / RFU ORM1 (11744905_x_at) / Fold change /veh ORM1 (11744905_x_at) / RFU CCDC152 (11743942_at) / Fold change /veh CCDC152 (11743942_at) / RFU ECM1 (11717891_a_at) / Fold change /veh ECM1 (11717891_a_at) / RFU IL23R (11748794_a_at) / Fold change /veh IL23R (11748794_a_at) / RFU TNFAIP8L3 (11732012_x_at) / Fold change /veh TNFAIP8L3 (11732012_x_at) / RFU MBOAT4 (11741988_at) / Fold change /veh MBOAT4 (11741988_at) / RFU 11764193_at / Fold change /veh 11764193_at / RFU TMEM53 (11763286_at) / Fold change /veh TMEM53 (11763286_at) / RFU MAGEB2 (11727129_at) / Fold change /veh MAGEB2 (11727129_at) / RFU TMEM200A (11744735_a_at) / Fold change /veh TMEM200A (11744735_a_at) / RFU CCDC152 (11751479_a_at) / Fold change /veh CCDC152 (11751479_a_at) / RFU FAM211A (11726209_a_at) / Fold change /veh FAM211A (11726209_a_at) / RFU RGS16 (11746705_a_at) / Fold change /veh RGS16 (11746705_a_at) / RFU VCAN (11755009_s_at) / Fold change /veh VCAN (11755009_s_at) / RFU RHOB (11743442_s_at) / Fold change /veh RHOB (11743442_s_at) / RFU RGS16 (11720943_a_at) / Fold change /veh RGS16 (11720943_a_at) / RFU RGS16 (11720944_at) / Fold change /veh RGS16 (11720944_at) / RFU, VPS4B / Fold change vs veh, VPS4B / RFU, CREB1 / Fold change vs veh, CREB1 / RFU, DNAJC13 / Fold change vs veh, DNAJC13 / RFU, GNAQ / Fold change vs veh, GNAQ / RFU, CDK5R1 / Fold change vs veh, CDK5R1 / RFU, ZRANB3 / Fold change vs veh, ZRANB3 / RFU, CUL4A / Fold change vs veh, CUL4A / RFU, CCNY / Fold change vs veh, CCNY / RFU, UFL1 / Fold change vs veh, UFL1 / RFU, COG3 / Fold change vs veh, COG3 / RFU, DIAPH2 / Fold change vs veh, DIAPH2 / RFU, SKA2 / Fold change vs veh, SKA2 / RFU, AFF3 / Fold change vs veh, AFF3 / RFU, LMF1 / Fold change vs veh, LMF1 / RFU, IPO11 / Fold change vs veh, IPO11 / RFU, DFFB / Fold change vs veh, DFFB / RFU, FOXP1 / Fold change vs veh, FOXP1 / RFU, CARD8 / Fold change vs veh, CARD8 / RFU, STRN3 / Fold change vs veh, STRN3 / RFU, ADK / Fold change vs veh, ADK / RFU, RASSF2 / Fold change vs veh, RASSF2 / RFU, WIPF1 / Fold change vs veh, WIPF1 / RFU, LARP1B / Fold change vs veh, LARP1B / RFU, RASA1 / Fold change vs veh, RASA1 / RFU, RB1 / Fold change vs veh, RB1 / RFU, PPFIA1 / Fold change vs veh, PPFIA1 / RFU, MAT2A / Fold change vs veh, MAT2A / RFU, CCT5 / Fold change vs veh, CCT5 / RFU, WDR92 / Fold change vs veh, WDR92 / RFU, CUX1 / Fold change vs veh, CUX1 / RFU, TTC7A / Fold change vs veh, TTC7A / RFU, TMEM135 / Fold change vs veh, TMEM135 / RFU, DEPTOR / Fold change vs veh, DEPTOR / RFU, CPM / Fold change vs veh, CPM / RFU, DNAJB6 / Fold change vs veh, DNAJB6 / RFU, CACNA2D3 / Fold change vs veh, CACNA2D3 / RFU, DTX4 / Fold change vs veh, DTX4 / RFU, TFCP2 / Fold change vs veh, TFCP2 / RFU, GMCL1 /// GMCL1P1 / Fold change vs veh, GMCL1 /// GMCL1P1 / RFU, AEBP2 / Fold change vs veh, AEBP2 / RFU, SNHG1 /// SNORD22 /// SNORD25 /// SNORD26 /// SNORD27 /// SNORD28 /// SNORD29 /// SNORD31 / Fold change vs veh, SNHG1 /// SNORD22 /// SNORD25 /// SNORD26 /// SNORD27 /// SNORD28 /// SNORD29 /// SNORD31 / Fold change (Aza/veh), C12orf56 (ProbeSet 11735607_a_at) / Fold change (ACY-1035/veh), C12orf56 (ProbeSet 11735607_a_at) / Fold change (Aza/veh), FGFR1OP (ProbeSet 11751329_s_at) / Fold change (ACY-1035/veh), FGFR1OP (ProbeSet 11751329_s_at) / Fold change (Aza/veh), VPS36 (ProbeSet 11739960_a_at) / Fold change (ACY-1035/veh), VPS36 (ProbeSet 11739960_a_at) / RFU SYPL1 (11715823_x_at) / Fold change /veh SYPL1 (11715823_x_at) / RFU IGFBP7 (11715501_s_at) / Fold change /veh IGFBP7 (11715501_s_at) / RFU REEP3 (11722064_at) / Fold change /veh REEP3 (11722064_at) / RFU IGLL1 (11728026_x_at) / Fold change /veh IGLL1 (11728026_x_at): dose or concentration left out as unconfirmed
Conditions: ProbeSet 11732370_a_at; LIST D

Nc1ncn([C@@H]2O[C@H](CO)[C@@H](O)[C@H]2O)c(=O)n1 [azacitidine]
Fold change vs veh, CUX1: 0.72
